{
  "source": "ChEMBL document CHEMBL6115034",
  "about": "“Pseudonatural Flavonols as Novel Copper Ionophores for NAFLD Intervention via Synergistic Copper Delivery and Flavonoid Activity” (J Med Chem, 2025)",
  "key": {"[1]": {"assay": "Stability of compound in PBS buffer in presence of cysteine by UV-Vis spectrophotometer analysis", "format": "physicochemical"}, "[2]": {"assay": "Stability of the compound in cell culture medium containing 10% fetal bovine serum in presence of EDTA by UV-Vis spectrophotometer analysis", "format": "physicochemical, cell-free", "conditions": "cattle"}, "HeLa [3]": {"tested_on": "HeLa", "assay": "Induction of copper transporting activity in human HeLa cells assessed as increase in intracellular copper levels at 0.02 to 20 uM by ICP-MS analysis", "format": "functional, cell-based", "conditions": "dose 0.02-20 µM, time <= 24.0 hrs"}, "HeLa [4]": {"tested_on": "HeLa", "assay": "Induction of copper transporting activity in human HeLa cells assessed as increase in intracellular copper levels incubated upto 24 hrs by ICP-MS analysis", "format": "functional, cell-based", "conditions": "dose 0.02-20 µM"}, "HepG2 [5]": {"tested_on": "HepG2", "assay": "Anti-NAFLD activity in palmitic acid human HepG2 NAFLD cell model assessed as cell viability at 0.1 to 0.5 uM compound administrated as copper complex measured at 24 hrs by MTT assay", "format": "functional, cell-based", "conditions": "dose 0.1-0.5 µM"}, "HepG2 [6]": {"tested_on": "HepG2", "assay": "Anti-NAFLD activity in palmitic acid human HepG2 NAFLD cell model assessed as increase in ROS level at 5 uM compound administrated as copper complex measured at 24 hrs by DCFH-DA probe based flow cytometry analysis", "format": "functional"}, "HepG2 [7]": {"tested_on": "HepG2", "assay": "Anti-NAFLD activity in palmitic acid human HepG2 NAFLD cell model assessed as increase in lipid droplet level at 5 uM compound administrated as copper complex measured at 24 hrs by Oil Red O staining based assay relative to control", "format": "functional"}, "HepG2 [8]": {"tested_on": "HepG2", "assay": "Anti-NAFLD activity in palmitic acid human HepG2 NAFLD cell model assessed as effect on IFIT3 expression at 0.5 uM incubated for 24 hrs in presence of CuCl2 by mRNA sequencing analysis", "format": "functional, cell-based"}, "HepG2 [9]": {"tested_on": "HepG2", "assay": "Anti-NAFLD activity in palmitic acid human HepG2 NAFLD cell model assessed as upregulation of MT1X expression at 0.5 uM incubated for 24 hrs in presence of CuCl2 by mRNA sequencing analysis", "format": "functional, cell-based"}, "HepG2 [10]": {"tested_on": "HepG2", "assay": "Anti-NAFLD activity in palmitic acid human HepG2 NAFLD cell model assessed as effect on CYP4F11 expression at 0.5 uM incubated for 24 hrs in presence of CuCl2 by mRNA sequencing analysis", "format": "functional, cell-based"}, "HepG2 [11]": {"tested_on": "HepG2", "assay": "Anti-NAFLD activity in palmitic acid human HepG2 NAFLD cell model assessed as effect on SLC48A1 expression at 0.5 uM incubated for 24 hrs in presence of CuCl2 by mRNA sequencing analysis", "format": "functional, cell-based"}, "HepG2 [12]": {"tested_on": "HepG2", "assay": "Anti-NAFLD activity in palmitic acid human HepG2 NAFLD cell model assessed as upregulation of MT1E expression at 0.5 uM incubated for 24 hrs in presence of CuCl2 by mRNA sequencing analysis", "format": "functional, cell-based"}, "HepG2 [13]": {"tested_on": "HepG2", "assay": "Anti-NAFLD activity in palmitic acid human HepG2 NAFLD cell model assessed as downregulation of STEAP4 expression at 0.5 uM incubated for 24 hrs in presence of CuCl2 by mRNA sequencing analysis", "format": "functional, cell-based"}, "HepG2 [14]": {"tested_on": "HepG2", "assay": "Anti-NAFLD activity in palmitic acid human HepG2 NAFLD cell model assessed as upregulation of fatty acid metabolism related genes at 0.5 uM incubated for 24 hrs in presence of CuCl2 by mRNA sequencing analysis", "format": "functional, cell-based"}, "HepG2 [15]": {"tested_on": "HepG2", "assay": "Anti-NAFLD activity in palmitic acid human HepG2 NAFLD cell model assessed as upregulation of CYP4F11 expression at 0.5 uM incubated for 24 hrs in presence of CuCl2 by mRNA sequencing analysis", "format": "functional, cell-based"}, "HepG2 [16]": {"tested_on": "HepG2", "assay": "Anti-NAFLD activity in palmitic acid human HepG2 NAFLD cell model assessed as upregulation of POR expression at 0.5 uM incubated for 24 hrs in presence of CuCl2 by mRNA sequencing analysis", "format": "functional, cell-based"}, "HepG2 [17]": {"tested_on": "HepG2", "assay": "Anti-NAFLD activity in palmitic acid human HepG2 NAFLD cell model assessed as upregulation of CAT expression at 0.5 uM incubated for 24 hrs in presence of CuCl2 by mRNA sequencing analysis", "format": "functional, cell-based"}, "HepG2 [18]": {"tested_on": "HepG2", "assay": "Anti-NAFLD activity in palmitic acid human HepG2 NAFLD cell model assessed as upregulation of PRDX1 expression at 0.5 uM incubated for 24 hrs in presence of CuCl2 by mRNA sequencing analysis", "format": "functional, cell-based"}, "HepG2 [19]": {"tested_on": "HepG2", "assay": "Anti-NAFLD activity in palmitic acid human HepG2 NAFLD cell model assessed as upregulation of TXN expression at 0.5 uM incubated for 24 hrs in presence of CuCl2 by mRNA sequencing analysis", "format": "functional, cell-based"}, "HepG2 [20]": {"tested_on": "HepG2", "assay": "Anti-NAFLD activity in palmitic acid human HepG2 NAFLD cell model assessed as upregulation of NQO1 expression at 0.5 uM incubated for 24 hrs in presence of CuCl2 by mRNA sequencing analysis", "format": "functional, cell-based"}, "[21]": {"assay": "Toxicity in male C57BL/6 mouse assessed as lung lesion at 125 mg/kg, po compound administrated as copper complex measured for 10 weeks", "format": "organism-based", "conditions": "in vivo, 1680 h"}, "[22]": {"assay": "Toxicity in male C57BL/6 mouse assessed as spleen lesion at 125 mg/kg, po compound administrated as copper complex measured for 10 weeks", "format": "organism-based", "conditions": "in vivo, 1680 h"}, "[23]": {"assay": "Toxicity in male C57BL/6 mouse assessed as kidney lesion at 125 mg/kg, po compound administrated as copper complex measured for 10 weeks", "format": "organism-based", "conditions": "in vivo, 1680 h"}, "[24]": {"assay": "Toxicity in male C57BL/6 mouse assessed as heart lesion at 125 mg/kg, po compound administrated as copper complex measured for 10 weeks", "format": "organism-based", "conditions": "in vivo, 1680 h"}, "Mus musculus [25]": {"tested_on": "Mus musculus", "assay": "Anti-NAFLD activity in high-fat diet-induced male C57BL/6J mouse model assessed as increase in copper level in liver at 125 mg/kg, po compound administrated as copper complex measured for 10 weeks by ICP-MS analysis", "format": "functional, organism-based"}, "Mus musculus [26]": {"tested_on": "Mus musculus", "assay": "Anti-NAFLD activity in high-fat diet-induced male C57BL/6J mouse model assessed as increase in liver weight at 125 mg/kg, po compound administrated as copper complex measured for 10 weeks […]", "format": "functional, organism-based"}, "[27]": {"assay": "Toxicity in male C57BL/6 mouse assessed as change in ALT level at 125 mg/kg, po compound administrated as copper complex measured for 10 weeks", "format": "organism-based", "conditions": "in vivo, 1680 h"}, "Mus musculus [28]": {"tested_on": "Mus musculus", "assay": "Anti-NAFLD activity in high-fat diet-induced male C57BL/6J mouse model assessed as reduction in serum NEFA level at 125 mg/kg, po compound administrated as copper complex measured for 10 weeks", "format": "functional", "design": "scale not given: the % may be the effect or the level left"}, "Mus musculus [29]": {"tested_on": "Mus musculus", "assay": "Anti-NAFLD activity in high-fat diet-induced male C57BL/6J mouse model assessed as increase in lactate level at 125 mg/kg, po compound administrated as copper complex measured for 10 weeks by LC-MS/MS analysis", "format": "functional, organism-based"}, "Mus musculus [30]": {"tested_on": "Mus musculus", "assay": "Anti-NAFLD activity in high-fat diet-induced male C57BL/6J mouse model assessed as increase in X5P level in liver at 125 mg/kg, po compound administrated as copper complex measured for 10 weeks by LC-MS/MS analysis", "format": "functional, organism-based"}, "Mus musculus [31]": {"tested_on": "Mus musculus", "assay": "Anti-NAFLD activity in high-fat diet-induced male C57BL/6J mouse model assessed as increase in E4P level in liver at 125 mg/kg, po compound administrated as copper complex measured for 10 weeks by LC-MS/MS analysis", "format": "functional, organism-based"}},
  "note": "Calls of active or inactive are those of the source. No cut-off for these calls is given here.",
  "data": [
    {"smiles": "O=c1c(O)c(-c2ccc3cccc(O)c3n2)oc2ccccc12", "values": [
      {"measurement": "Stability", "setting": "[1]", "result": "Stable"},
      {"measurement": "Stability", "setting": "[2]", "result": "Stable"},
      {"measurement": "Activity", "setting": "HeLa [3]", "result": "Time-dependent-effect"},
      {"measurement": "Activity", "setting": "HeLa [4]", "result": "Dose-dependent-effect"},
      {"measurement": "Activity", "setting": "HepG2 [5]", "result": "Active"},
      {"measurement": "Activity", "setting": "HepG2 [6]", "result": "Active"},
      {"measurement": "Activity", "setting": "HepG2 [7]", "result": 31, "unit": "%"},
      {"measurement": "Activity", "setting": "HepG2 [8]", "result": "Active"},
      {"measurement": "Activity", "setting": "HepG2 [9]", "result": "Active"},
      {"measurement": "Activity", "setting": "HepG2 [10]", "result": "Active"},
      {"measurement": "Activity", "setting": "HepG2 [11]", "result": "Active"},
      {"measurement": "Activity", "setting": "HepG2 [12]", "result": "Active"},
      {"measurement": "Activity", "setting": "HepG2 [13]", "result": "Active"},
      {"measurement": "Activity", "setting": "HepG2 [14]", "result": "Active"},
      {"measurement": "Activity", "setting": "HepG2 [15]", "result": "Active"},
      {"measurement": "Activity", "setting": "HepG2 [16]", "result": "Active"},
      {"measurement": "Activity", "setting": "HepG2 [17]", "result": "Active"},
      {"measurement": "Activity", "setting": "HepG2 [18]", "result": "Active"},
      {"measurement": "Activity", "setting": "HepG2 [19]", "result": "Active"},
      {"measurement": "Activity", "setting": "HepG2 [20]", "result": "Active"},
      {"measurement": "Activity", "setting": "[21]", "result": "Non-toxic"},
      {"measurement": "Activity", "setting": "[22]", "result": "Non-toxic"},
      {"measurement": "Activity", "setting": "[23]", "result": "Non-toxic"},
      {"measurement": "Activity", "setting": "[24]", "result": "Non-toxic"},
      {"measurement": "Activity", "setting": "Mus musculus [25]", "result": "Active"},
      {"measurement": "Activity", "setting": "Mus musculus [26]", "result": "Active"},
      {"measurement": "Activity", "setting": "[27]", "result": "Non-toxic"},
      {"measurement": "Activity", "setting": "Mus musculus [28]", "result": 52, "unit": "%"},
      {"measurement": "Activity", "setting": "Mus musculus [29]", "result": "Active"},
      {"measurement": "Activity", "setting": "Mus musculus [30]", "result": "Active"},
      {"measurement": "Activity", "setting": "Mus musculus [31]", "result": "Active"}
    ]}
  ]
}
